# Measurements taken from patent US20040029773A1, “Use of 1-ebio in the treatment of bipolar disorders” (priority 2000, published 2004).
# Assays:
# [1] = tested on: amphetamine/chlordiazepoxide-induced hyperactivity in mice; experiment: amphetamine/chlordiazepoxide-induced hyperactivity, rodent model of mania (locomotor activity); details: 150 mg/kg i.p., data not shown
# [2] = tested on: amphetamine/chlordiazepoxide-induced hyperactivity in mice; details: previous validation studies (literature); cited from earlier work
smiles,measurement,setting,value
CCCC(CCC)C(=O)[O-].[Na+] [sodium valproate],amphetamine/chlordiazepoxide-induced hyperactivity,[1],can be prevented
same,behaviour induced by amphetamine plus chlordiazepoxide,[2],can be ameliorated
